PubChem BioAssay (NCI)
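Values below derive from 48-hour exposures of cells grown in 96-well plates, with endpoints linearly interpolated between the two concentrations bracketing the appropriate inhibition level. GI50 is the concentration that inhibits growth by half. At the TGI there is no net growth.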

Tests used:
Test in all cases: NCI-60 cell line screen, 48 h
[1] = system: UACC-257 melanoma
[2] = system: IGROV1 ovarian
[3] = system: SNB-19 CNS
[4] = system: UO-31 renal
[5] = system: NCI/ADR-RES ovarian
[6] = system: MALME-3M melanoma
[7] = system: HCC-2998 colon
[8] = system: KM12 colon
[9] = system: HCT-15 colon
[10] = system: M14 melanoma
[11] = system: EKVX NSCLC
[12] = system: NCI-H522 lung
[13] = system: PC-3 prostate
[14] = system: RPMI-8226 leukemia
[15] = system: COLO 205 colon
[16] = system: MOLT-4 leukemia
[17] = system: OVCAR-3 ovarian
[18] = system: SK-MEL-28 melanoma
[19] = system: SW-620 colon
[20] = system: SF-539 CNS
[21] = system: 786-0 renal
[22] = system: HL-60(TB) leukemia
[23] = system: SK-MEL-5 melanoma
[24] = system: HCT-116 colon
[25] = system: UACC-62 melanoma
[26] = system: A549 NSCLC
[27] = system: SF-295 CNS
[28] = system: SF-268 CNS
[29] = system: CCRF-CEM leukemia
[30] = system: OVCAR-5 ovarian
[31] = system: LOX IMVI melanoma
[32] = system: HOP-62 NSCLC
[33] = system: SK-MEL-2 melanoma
[34] = system: U251 CNS
[35] = system: K-562 leukemia
[36] = system: DU-145 prostate
[37] = system: MCF7 breast
[38] = system: TK-10 renal
[39] = system: HS 578T breast
[40] = system: MDA-MB-435
[41] = system: NCI-H460 lung
[42] = system: OVCAR-4 ovarian
[43] = system: SK-OV-3 ovarian
[44] = system: SNB-75 CNS
[45] = system: MDA-MB-231 breast
[46] = system: BT-549 breast
[47] = system: HT29 colon
[48] = system: NCI-H23 lung
[49] = system: SR leukemia
[50] = system: NCI-H226 lung
[51] = system: SN12C renal
[52] = system: OVCAR-8 ovarian
[53] = system: CAKI-1 renal
[54] = system: A498 renal
[55] = system: ACHN renal
[56] = system: T-47D breast
[57] = system: HOP-92 NSCLC
[58] = system: RXF 393 renal

## COc1cc(-n2cnc(-c3ccc(Cl)cc3)c2)cc(OC)c1OC
[1]
  GI50: 18.3 µM
  TGI: 34.1 µM
[2]
  GI50: 30.7 µM
  TGI: > 100 µM
[3]
  GI50: > 100 µM
  TGI: > 100 µM
[4]
  GI50: 15.6 µM
  TGI: 40.5 µM
[5]
  GI50: 16.9 µM
  TGI: 45.1 µM
[6]
  GI50: 16.1 µM
  TGI: 32.9 µM
[7]
  GI50: 16.8 µM
  TGI: 30.4 µM
[8]
  GI50: > 100 µM
  TGI: > 100 µM
[9]
  GI50: 16.8 µM
  TGI: 36.3 µM
[10]
  GI50: 73 µM
  TGI: > 100 µM
[11]
  GI50: > 100 µM
  TGI: > 100 µM
[12]
  GI50: 15.6 µM
  TGI: 34.3 µM
[13]
  GI50: 12.7 µM
  TGI: 31.7 µM
[14]
  GI50: 14.7 µM
  TGI: 32.2 µM
[15]
  GI50: 15.4 µM
  TGI: 29.8 µM
[16]
  GI50: 19.2 µM
  TGI: 39.9 µM
[17]
  GI50: > 100 µM
  TGI: > 100 µM
[18]
  GI50: 15.5 µM
  TGI: 29.7 µM
[19]
  GI50: > 100 µM
  TGI: > 100 µM
[20]
  GI50: 17.1 µM
  TGI: 34.4 µM
[21]
  GI50: > 100 µM
  TGI: > 100 µM
[22]
  GI50: 15.3 µM
  TGI: 35.4 µM
[23]
  GI50: 67.8 µM
  TGI: > 100 µM
[24]
  GI50: > 100 µM
  TGI: > 100 µM
[25]
  GI50: 62.4 µM
  TGI: > 100 µM
[26]
  GI50: > 100 µM
  TGI: > 100 µM
[27]
  GI50: 17.6 µM
  TGI: 38.1 µM
[28]
  GI50: 22.9 µM
  TGI: 63.2 µM
[29]
  GI50: 21.4 µM
  TGI: 44.8 µM
[30]
  GI50: 18.6 µM
  TGI: 45.4 µM
[31]
  GI50: 18 µM
  TGI: 34.3 µM
[32]
  GI50: 24.1 µM
  TGI: 71.5 µM
[33]
  GI50: 18.3 µM
  TGI: 40.1 µM
[34]
  GI50: 22.2 µM
  TGI: 57.8 µM
[35]
  GI50: 7.33 µM
  TGI: 29.5 µM
[36]
  GI50: > 100 µM
  TGI: > 100 µM
[37]
  GI50: 17.9 µM
  TGI: 34.7 µM
[38]
  GI50: 15 µM
  TGI: 37.4 µM
[39]
  GI50: 49.2 µM
  TGI: > 100 µM
[40]
  GI50: 38.4 µM
  TGI: > 100 µM
[41]
  GI50: 18.6 µM
  TGI: 36.8 µM
[42]
  GI50: 15.8 µM
  TGI: 46.6 µM
[43]
  GI50: 21.2 µM
  TGI: 52.2 µM
[44]
  GI50: 16.5 µM
  TGI: 34.8 µM
[45]
  GI50: 85.7 µM
  TGI: > 100 µM
[46]
  GI50: 16.7 µM
  TGI: 31.3 µM
[47]
  GI50: 16.1 µM
  TGI: 32.8 µM
[48]
  GI50: 17.9 µM
  TGI: 35 µM
[49]
  GI50: 25.4 µM
  TGI: 62.2 µM
[50]
  GI50: > 100 µM
  TGI: > 100 µM
[51]
  GI50: > 100 µM
  TGI: > 100 µM
[52]
  GI50: > 100 µM
  TGI: > 100 µM
[53]
  GI50: 24.9 µM
  TGI: > 100 µM
[54]
  GI50: 14.2 µM
  TGI: 31.6 µM
[55]
  GI50: 19.8 µM
  TGI: 57.3 µM

## C[C@H](N[C@H]1CCC[C@]1(O)C#Cc1ccc2c(c1)OCO2)c1ccccc1
[1]
  TGI: > 25 µM
[2]
  TGI: > 25 µM
[3]
  TGI: > 25 µM
[4]
  TGI: > 25 µM
[56]
  TGI: > 25 µM
[5]
  TGI: > 25 µM
[7]
  TGI: > 25 µM
[8]
  TGI: > 25 µM
[9]
  TGI: > 25 µM
[10]
  TGI: > 25 µM
[11]
  TGI: > 25 µM
[13]
  TGI: > 25 µM
[14]
  TGI: 16.9 µM
[57]
  TGI: > 25 µM
[15]
  TGI: > 25 µM
[16]
  TGI: > 25 µM
[18]
  TGI: > 25 µM
[22]
  TGI: > 25 µM
[23]
  TGI: > 25 µM
[25]
  TGI: > 25 µM
[26]
  TGI: > 25 µM
[27]
  TGI: > 25 µM
[28]
  TGI: > 25 µM
[29]
  TGI: > 25 µM
[30]
  TGI: > 25 µM
[31]
  TGI: > 25 µM
[32]
  TGI: > 25 µM
[33]
  TGI: > 25 µM
[34]
  TGI: > 25 µM
[35]
  TGI: > 25 µM
[36]
  TGI: > 25 µM
[37]
  TGI: > 25 µM
[38]
  TGI: > 25 µM
[39]
  TGI: > 25 µM
[40]
  TGI: > 25 µM
[41]
  TGI: > 25 µM
[42]
  TGI: > 25 µM
[43]
  TGI: > 25 µM
[44]
  TGI: > 25 µM
[45]
  TGI: > 25 µM
[47]
  TGI: > 25 µM
[48]
  TGI: > 25 µM
[49]
  TGI: > 25 µM
[50]
  TGI: > 25 µM
[52]
  TGI: > 25 µM
[58]
  TGI: > 25 µM
[53]
  TGI: > 25 µM
[54]
  TGI: > 25 µM
[55]
  TGI: > 25 µM
